Measured values from patent US8563526B2, “Triazole derivatives, their preparation and their application in therapeutics” (Institut National de la Sante et de la Recherche Medicale …, priority 2008, dated 2013).
Like-named read-outs stand apart in the source and are kept apart here.

What was measured:
MiaPaCa cells [1] = experiment: MTT cell survival assay on MiaPaCa cells; type: cell-based; conditions: for inhibition at 50 µM: Homo sapiens, MIA PaCa-2, 48 h
Procedure: Pancreactic cancer cell lines, MiaPaCa cells were cultured in DMEM medium (Gibco) supplemented with 10% fetal bovine serum (FBS). Cells were seeded at a densitiy of 15,000 cells per well in 96 well View Plate™ (Packard) in 250 μl of medium containing the same components as described above.
(§1) Cells were allowed to adhere and proliferate for 24 hr. At that time, culture medium was removed and serial dilutions from 10 nM to 200 μM of the test compounds were added in culture medium. Gemcitabine and no treatment were included as positive and negative controls. Plates were further incubated at 37° C. and 5% CO2 for 48 hours. The number of viable cells remaining after the appropriate treatment was determined by Colorimetric Assay (3-(4,5-dimethylthiazol-2-yl)-2,5-diphenyl tetrazolium bromide, MTT).
(§2) Inhibition of MiaPaCa and Capan-2 cells were tested at different doses of compounds of the invention: 50 μM, 100 μM and 200 μM.
(§3) Cells were seeded on 96-well plates in 250 μL media and 24 hours later, compound to be tested was added in 250 μL of media to the desired final concentration (from 10 nM to 200 μM). After 48 hours, the number of viable cells remaining after the appropriate treatment was determined by MTT. Minimum Efficient Dose (MED) and IC50 values was evaluated from the dose-dependency study. The results in FIGS. 1, 2, 4 and 5 are presented in percentage of cell growth inhibition compared to control non treated cells.

Capan-2 cells = experiment: MTT cell survival assay on Capan-2 cells; type: cell-based; conditions: for inhibition at 50 µM: Homo sapiens, Capan-2, 48 h, read-out: Inhibition effect on Capan-2 at 50 μM (%); for cell viability / cells die: FIG. 2
Procedure: For Capan-2 cell lines, the cells were cultured in RPMI 1640 medium supplemented with 10% FBS and 1% glutamine. Cells were seeded at a densitiy of 20,000 cells per well in 96 well View Plate™ (Packard) in 250 μl of medium containing the same components as described above.
as §1, §2, §3

pancreatic cancer = pancreatic cancer patients, first-line treatment; cited from earlier work
MiaPaCa cells [2] = experiment: Apoptosis evaluation on MiaPaCa cells by flow cytometry (sub-G0 ratio); type: cell-based; conditions: 24 h after administration, FIG. 3
Procedure: Cells were plated in 10 cm dishes at the density of 300 000 cells/plate. Cells were stopped for flow cytometry analysis 12, 24 and 48 h post-treatment. After trypsination, cell pellet was washed with PBS and fixed in cold-ethanol 70% overnight at 4° C. After a wash with phosphate-citrate buffer, cells were treated with 200 μL RNA-ase (500 μg/mL), labeled with 1 mL propidium iodide (50 μg/mL), and immediately analyzed by flow cytometry (FACS Calibur, Becton Dickinson, Le Pont-De-Claix, France). Cell death analysis was done on 1,000,000 cells, evaluating the sub-G0 ratio. Each sample was performed in triplicate.

MiaPaCa-2 cells = experiment: Combination effect with gemcitabine in vitro, MTT assay on MiaPaCa-2 cells; type: cell-based; conditions: combined with gemcitabine, MiaPaCa-2, FIG. 9
Excerpt: FIG. 9 illustrates the beneficial combination effect of compounds (1, 4 or 18) in vitro based on the results obtained by using a MTT assay on MiaPaCa-2 cells.
Three compounds (compounds n^o 1, 4 and 18) combined with gemcitabine were accessed their anticancer activity.

[3] = system: MiaPaCa-2-xenografed tumors; experiment: MiaPaCa-2 xenograft tumor growth in nude mice; type: in vivo
Procedure: The antitumor effects of the active compounds 1 and 4 were evaluated in nude mice bearing MiaPaCa-2-xenografed tumors. Institutional guidelines for the proper and human use of animals in research were followed. Approximately 1×10^7 MiaPaCa-2 cells were inoculated subcutaneously with 0.1 mL of Matrigel (BD Biosciences Discovery Labware) to 6-week-old male xenografed nude mice. When MiaPaCa-2 tumors reached 100 mm^3, mice were randomly selected for treatment with test compound and no treated mice were used as control. Each experimental group consisted of 8 mice. After randomization, 150 mg/kg test compound was injected every three days by i.p. injection for 5 weeks. The combination injection was performed every two days. Tumor volume measurements were performed once weekly and calculated by the formula length×width×depth×0.5236.

p-8 mRNA = p-8 mRNA expression in MiaPaCa-2 cells by quantitative RT-PCR; type: cell-based; conditions: FIG. 12
Excerpt: The stress-associated protein, p-8 with antiapoptotic properties was strongly expressed in two of the most resistant pancreactic cancer cell lines, while Heat Shock Protein 27 (Hsp27) is a protein which can be over-expressed in many tumor cells and protects against apoptotic cell death triggered by various stimuli. So in order to study the intracellular target of the active compounds, the effect of the active compounds on the expression of p-8 and Hsp27 mRNA in MiaPaCa-2 cells were investigated by quantitative RT-PCR. First-strand cDNA was synthesized in 20 μL reaction with 1 μg total RNA using Expand Reverse Transcriptase (Roche, Meylan, France) following the instructions of the manufacturer. Quantitative PCR was done with the Light Cycler system (Roche) and Takara (Berkeley, Calif.) reagents. Five microliters of 10-fold diluted cDNA were mixed with 10 μL SYBR Premix Ex Taq (including Taq polymerase, reaction buffer, MgCl2, SYBR green I dye, and deoxynucleotide triphosphate mix) and […] forward and reverse primers (TBP primers are used as a control) in a volume of 20 μL. […] Each sample was analyzed in duplicate and the experiment was repeated twice. Results were analyzed using RelQuant (Roche) and expressed as percent of control values.

[4] = 50 μM, 48 hours, MTT, Table III, read-out: Inhibition effect on MiaPaCa-2 at 50 μM (%)
[5] = 50 μM, 48 hours, MTT, Table III
[6] = 50 μM, 48 hours, MTT, Table II, read-out: Inhibition effect on MiaPaCa at 50 μM (%)

Q: With `NC(=O)c1nc(-c2cn(-c3cccc4ccccc34)nn2)n(COCCO)n1` [Compound 21, 1-((2-hydroxyethoxy)methyl)-5-(1-(naphthalen-1-yl)-1H-1,2,3-triazol-4-yl)-1H-1,2,4-triazole-3-carboxamide] as the molecule, how does the inhibition at 50 µM (MiaPaCa cells [1]; [4]) read?
A: Its inhibition at 50 µM is 30.9%.

Q: And the inhibition at 50 µM (Capan-2 cells; [5])?
A: Its inhibition at 50 µM is 55.6%.

Q: With `CCCCCCCCCCCCn1cc(-c2nc(C(N)=O)nn2COCCO)nn1` [Compound 17] as the molecule, how does the “Inhibition effect on MiaPaCa-2 at 50 μM (%)” value (MiaPaCa cells [1]; [5]) read?
A: The value was 43.2%.

Q: And the “Inhibition effect on Capan-2 at 50 μM (%)” value (Capan-2 cells; [5])?
A: Its value is 29.5%.

Q: For `NC(=O)c1nc(-c2cn(Cc3ccc4ccc5cccc6ccc3c4c56)nn2)nn1COCCO` [Compound 20, 1-((2-hydroxyethoxy)methyl)-3-(1-((pyren-3-yl)methyl)-1H-1,2,3-triazol-4-yl)-1H-1,2,4-triazole-5-carboxamide], which inhibition at 50 µM (MiaPaCa cells [1]; [4]) is on record?
A: The inhibition at 50 µM was 28.7%.

Q: What about the inhibition at 50 µM (Capan-2 cells; [5]) of the same molecule?
A: The inhibition at 50 µM was 60.6%.

Q: With `NC(=O)c1nc(-c2cn(Cc3ccc4ccc5cccc6ccc3c4c56)nn2)n(COCCO)n1` [Compound 19, 1-((2-hydroxyethoxy)methyl)-5-(1-((pyren-3-yl)methyl)-1H-1,2,3-triazol-4-yl)-1H-1,2,4-triazole-3-carboxamide] as the molecule, how does the inhibition at 50 µM (MiaPaCa cells [1]; [4]) read?
A: Its inhibition at 50 µM is 59.3%.

Q: What about the inhibition at 50 µM (Capan-2 cells; [5]) of the same molecule?
A: The inhibition at 50 µM was 43.4%.

Q: Which inhibition at 50 µM (MiaPaCa cells [1]; [4]) does the source give for `NC(=O)c1nc(C#Cc2ccc(Br)cc2)n(COCCO)n1` [Compound 14, 1-((2-hydroxyethoxy)methyl)-5-(2-(4-bromophenyl)ethynyl)-1H-1,2,4-triazole-3-carboxamide] here?
A: The inhibition at 50 µM was greater than 50%.

Q: What about the inhibition at 50 µM (Capan-2 cells; [5]) of the same molecule?
A: Its inhibition at 50 µM is greater than 50%.

Q: Which inhibition at 50 µM (MiaPaCa cells [1]; [6]) does the source give for `Nc1ccn([C@@H]2O[C@H](CO)[C@@H](O)C2(F)F)c(=O)n1` [Gemcitabine, reference compound] here?
A: The inhibition at 50 µM was 29.3%.

Q: And the inhibition at 50 µM (MiaPaCa cells [1]; [4])?
A: The inhibition at 50 µM was 29.3%.

Q: What about the cells remaining alive (MiaPaCa cells [1]; MiaPaCa, 50 μM or 100 μM, FIG. 1) of the same molecule?
A: The cells remaining alive was “about 80%”.

Q: What about the cell viability (Capan-2 cells; Capan-2, with dose increase) of the same molecule?
A: Its cell viability is “cell viability stagnates”.

Q: And the inhibition at 50 µM (Capan-2 cells; 50 μM, 48 hours, MTT, Table II)?
A: Its inhibition at 50 µM is 61.7%.

Q: What about the inhibition at 50 µM (Capan-2 cells; [5]) of the same molecule?
A: Its inhibition at 50 µM is 61.7%.

Q: And the response (pancreatic cancer)?
A: The response was 12%.

Q: Which results are given for `COC(=O)c1nc(C#Cc2ccc(C(F)(F)F)cc2)n([C@@H]2O[C@H](COC(C)=O)[C@@H](OC(C)=O)[C@H]2OC(C)=O)n1` [Compound 1, Methyl 5-(4-trifluoromethylphenylethynyl)-1-(2,3,5-tri-O-acetyl-β-D-ribofuranosyl)-1H-[1,2,4]triazole-3-carboxylate]?
A: inhibition at 50 µM (MiaPaCa cells [1]; [6]): > 50%; cells die (MiaPaCa cells [1]; MiaPaCa, 50 μM, FIG. 1): about 60%; cells die (Capan-2 cells; Capan-2, 50 μM): about 60%; cells die (Capan-2 cells; Capan-2, 100 μM): more than 80%; inhibition at 50 µM (Capan-2 cells; 50 μM, 48 hours, MTT, Table II): > 50%; apoptosis compared to cells treated with gemcitabine (MiaPaCa cells [2]): about 4 times; apoptosis compared to non-treated cells (MiaPaCa cells [2]): about 8 times; antiproliferation in combination with gemcitabine (MiaPaCa-2 cells): more efficiency on antiproliferation; MiaPaCa-2 tumor volume ([3]; 150 mg/kg i.p. every three days for 5 weeks, compound alone, FIG. 10): reduce MiaPaCa-2 tumor volume; adverse effect of drug treatment ([3]; alone or in combination with gemcitabine, nude mice, FIG. 11): absence of adverse effect; tumor growth ([3]; combined with gemcitabine, injection every two days, FIG. 10): almost sinificantly inhibited; p-8 mRNA expression (p-8 mRNA; combination with gemcitabine): down-regulated

Q: With `COC(=O)c1nc(-c2cn(-c3ccc4ccc5cccc6ccc3c4c56)nn2)n(COCCOC(C)=O)n1` [Compound 22, Methyl 1-((2-acetoxyethoxy)methyl)-5-(1-(pyren-3-yl)-1H-1,2,3-triazol-4-yl)-1H-1,2,4-triazole-3-carboxylate] as the molecule, how does the inhibition at 50 µM (MiaPaCa cells [1]; [4]) read?
A: Its inhibition at 50 µM is 40.7%.

Q: What about the inhibition at 50 µM (Capan-2 cells; [5]) of the same molecule?
A: Its inhibition at 50 µM is 63.9%.

Q: For `NC(=O)c1nc(C#Cc2ccc(C(F)(F)F)cc2)n(COCCOC(=O)c2ccccc2)n1` [Compound 15, 1-[(2-(benzoyloxy)ethoxy)methyl]-5-(2-(4-trifluoromethylphenyl)ethynyl)-1H-1,2,4-triazole-3-carboxamide], which inhibition at 50 µM (MiaPaCa cells [1]; [4]) is on record?
A: The inhibition at 50 µM was greater than 50%.

Q: What about the inhibition at 50 µM (Capan-2 cells; [5]) of the same molecule?
A: Its inhibition at 50 µM is greater than 50%.

Q: What does the source list for `COC(=O)c1nc(C#CC2=CCCCC2)n([C@@H]2O[C@H](COC(C)=O)[C@@H](OC(C)=O)[C@H]2OC(C)=O)n1` [Compound 2, Methyl 5-(Cyclohexenylethynyl)-1-(2,3,5-tri-O-acetyl-β-D-ribofuranosyl)-1H-[1,2,4]triazole-3-carboxylate]?
A: inhibition at 50 µM (MiaPaCa cells [1]; [6]): 21.3%; cell viability (Capan-2 cells; Capan-2, doses higher than 100 μM): cell viability rapidly decreases; inhibition at 50 µM (Capan-2 cells; 50 μM, 48 hours, MTT, Table II): 57.6%

Q: Which inhibition at 50 µM (Capan-2 cells; [5]) does the source give for `COC(=O)c1nc(-c2cn(Cc3ccc4ccc5cccc6ccc3c4c56)nn2)n(COCCOC(C)=O)n1` [Compound 18, Methyl 1-((2-acetoxyethoxy)methyl)-5-(1-((pyren-3-yl)methyl)-1H-1,2,3-triazol-4-yl)-1H-1,2,4-triazole-3-carboxylate] here?
A: The inhibition at 50 µM was greater than 50%.

Q: And the “antiproliferation in combination with gemcitabine” value (MiaPaCa-2 cells)?
A: Its value is “more efficiency on antiproliferation”.

Q: What about the “p-8 mRNA expression” value (p-8 mRNA; single treatment) of the same molecule?
A: Its value is “significantly inhibit”.
